8 compounds from PubChem BioAssay (NCI) can be followed below.

SMILES strings stand for the structures.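 48-hour exposure; five concentrations; linearly interpolated endpoints. Here, GI50 denotes the concentration required for 50% inhibition of growth. TGI denotes the concentration required for complete inhibition of growth.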

Some test systems named below: A498 renal; CCRF-CEM leukemia; HCT-15 colon; MCF7 breast; RXF 393 renal; SK-MEL-2 melanoma; SK-OV-3 ovarian; SN12C renal; SNB-19 CNS; UO-31 renal.
What all share (test): NCI-60 cell line screen, 48 h

On to `NC(Cc1ccc(O)cc1)C(=O)N/N=C/c1ccc(N(CCCl)CCCl)cc1` (stereo not given), for which the GI50 was 9.78 µM in the experiment with A498 renal; 231 nM with CCRF-CEM leukemia; 38.6 µM in the experiment with HCT-15 colon; 7.52 µM in the experiment with MCF7 breast; 20.6 µM in the experiment with RXF 393 renal; 60.6 µM in the experiment with SK-MEL-2 melanoma. Moreover, the GI50 is 47.9 µM in the experiment with SK-OV-3 ovarian, 1420 nM in the experiment on SN12C renal, 29.9 µM in the experiment on SNB-19 CNS and 3.95 µM in the experiment with UO-31 renal. Moreover, the TGI with A498 renal was 59.5 µM; with CCRF-CEM leukemia it was more than 100 µM; in the experiment with HCT-15 colon, more than 100 µM; with MCF7 breast, more than 100 µM; in the experiment on RXF 393 renal, more than 100 µM; in the experiment on SK-MEL-2 melanoma it was more than 100 µM. The TGI in the experiment with SK-OV-3 ovarian is more than 100 µM; in the experiment on SN12C renal, more than 100 µM; in the experiment on SNB-19 CNS, more than 100 µM; in the experiment with UO-31 renal, 23.6 µM.
Consider `C[C@@H](Oc1cc(-c2cnn(C3CC4(CNC4)C3)c2)cnc1N)c1c(Cl)ccc(F)c1Cl`, for which the GI50 with A498 renal is 1.1 µM; in the experiment on CCRF-CEM leukemia, 681 nM; with HCT-15 colon, 4.04 µM; in the experiment on MCF7 breast, 0.532 µM; in the experiment with RXF 393 renal, 3.39 µM; with SK-MEL-2 melanoma, 3.58 µM. Moreover, the GI50 with SK-OV-3 ovarian is 7.98 µM; in the experiment with SN12C renal, 2590 nM; in the experiment on SNB-19 CNS, 9.7 µM; in the experiment on UO-31 renal, 4.96 µM. Further, the TGI stood at 4.81 µM with A498 renal; 6.97 µM with CCRF-CEM leukemia; 15.1 µM in the experiment on HCT-15 colon; 5 µM in the experiment on MCF7 breast; 12.7 µM in the experiment on RXF 393 renal; 15.1 µM in the experiment on SK-MEL-2 melanoma. For the same compound, the TGI was found to be 21.1 µM in the experiment on SK-OV-3 ovarian, 13.8 µM with SN12C renal, 24.3 µM with SNB-19 CNS and 18.3 µM in the experiment with UO-31 renal.
For the compound `O=C(O)CN(CC(=O)O)c1ccccc1`, the TGI was more than 100 µM in the experiment with A498 renal; 83.7 µM in the experiment on CCRF-CEM leukemia; more than 100 µM in the experiment with HCT-15 colon; more than 100 µM with MCF7 breast; more than 100 µM in the experiment with RXF 393 renal; more than 100 µM in the experiment on SK-MEL-2 melanoma. For the same compound, the TGI with SK-OV-3 ovarian, in the experiment on SN12C renal, in the experiment with SNB-19 CNS and in the experiment on UO-31 renal was more than 100 µM throughout.
For the compound `CCc1ccc(Oc2nccc(-c3c(-c4ccc(F)cc4)ncn3C3CCNCC3)n2)cc1`, the GI50 is 3.55 µM in the experiment with A498 renal; 6770 nM with CCRF-CEM leukemia; 6.35 µM with HCT-15 colon; 4.39 µM with MCF7 breast; 3.99 µM in the experiment with RXF 393 renal; 5.24 µM with SK-MEL-2 melanoma. Moreover, the GI50 is 4.37 µM with SK-OV-3 ovarian, 5190 nM with SN12C renal, 7.84 µM in the experiment with SNB-19 CNS and 3.63 µM in the experiment with UO-31 renal. For the same compound, the TGI in the experiment on A498 renal was found to be 9.82 µM; in the experiment on CCRF-CEM leukemia it was 17.8 µM; in the experiment on HCT-15 colon, 15.8 µM; in the experiment on MCF7 breast it was 8.37 µM; with RXF 393 renal, 7.49 µM; in the experiment on SK-MEL-2 melanoma it was 9.48 µM. The TGI in the experiment on SK-OV-3 ovarian amounted to 9.21 µM; in the experiment on SN12C renal it was 13.9 µM; with SNB-19 CNS, 17.2 µM; in the experiment on UO-31 renal, 9.5 µM.
For the compound `O=C(O)CC1C(=O)OC2C3COC(=O)c4cc(O)c(O)c(O)c4-c4c(cc(O)c(O)c4O)C(=O)OC2C(OC(=O)c2cc(O)c(O)c4c2C1C(O)C(=O)O4)C(OC(=O)c1cc(O)c(O)c(O)c1)O3` (stereo not given), the TGI with A498 renal is more than 100 µM; in the experiment with CCRF-CEM leukemia it was 37 µM; in the experiment on HCT-15 colon, more than 100 µM; in the experiment with MCF7 breast it was 40.6 µM; with RXF 393 renal, more than 100 µM; in the experiment on SK-MEL-2 melanoma it was more than 100 µM. In addition, the TGI with SK-OV-3 ovarian was more than 100 µM; in the experiment with SN12C renal, 36.3 µM; in the experiment with SNB-19 CNS, more than 100 µM; with UO-31 renal, more than 100 µM.
Consider `CCOC(=O)c1c(C(F)(F)F)n([O-])c2ccc(Cl)cc2[n+]1=O`, for which the GI50 in the experiment with A498 renal is 1.73 µM; with CCRF-CEM leukemia, 1770 nM; in the experiment with HCT-15 colon, 1.52 µM; in the experiment on MCF7 breast, 1.98 µM; in the experiment on RXF 393 renal it was 1.82 µM; in the experiment on SK-MEL-2 melanoma, 1.94 µM. The GI50 in the experiment with SK-OV-3 ovarian was 4.14 µM; in the experiment on SN12C renal, 2230 nM; in the experiment on SNB-19 CNS, 6.21 µM; with UO-31 renal it was 1.48 µM. For the same compound, the TGI in the experiment on A498 renal came out at 3.93 µM; with CCRF-CEM leukemia, 3.99 µM; with HCT-15 colon, 3.16 µM; in the experiment on MCF7 breast, 4.24 µM; with RXF 393 renal it was 3.77 µM; with SK-MEL-2 melanoma, 4.34 µM. Moreover, the TGI came out at 16.1 µM in the experiment on SK-OV-3 ovarian, 10.3 µM in the experiment with SN12C renal, 19.2 µM in the experiment with SNB-19 CNS and 2.93 µM with UO-31 renal.
Take `O=C1NC(=O)C(N2CCc3ccccc32)=C1c1ccc(Cl)cc1`: the GI50 with A498 renal is more than 22.4 µM; in the experiment with CCRF-CEM leukemia, more than 25000 nM; with HCT-15 colon, more than 25 µM; in the experiment with MCF7 breast, more than 25 µM; in the experiment with RXF 393 renal, more than 25 µM; in the experiment with SK-MEL-2 melanoma it was more than 25 µM. In addition, the GI50 with SK-OV-3 ovarian was more than 25 µM; in the experiment with SN12C renal, more than 25000 nM; in the experiment with SNB-19 CNS, more than 25 µM; with UO-31 renal, more than 17.3 µM. Also, the TGI in the experiment with A498 renal, in the experiment on CCRF-CEM leukemia, with HCT-15 colon, in the experiment on MCF7 breast, in the experiment with RXF 393 renal and in the experiment with SK-MEL-2 melanoma was more than 25 µM throughout. Also, the TGI in the experiment with SK-OV-3 ovarian, with SN12C renal, with SNB-19 CNS and in the experiment on UO-31 renal was more than 25 µM throughout.
With `Nc1cccc2c1CN(C1CCC(=O)NC1=O)C2=O` (stereo not given), the GI50 in the experiment with A498 renal is more than 100 µM; in the experiment with CCRF-CEM leukemia it was more than 100000 nM; with HCT-15 colon, more than 100 µM; with MCF7 breast, more than 100 µM; with RXF 393 renal it was more than 100 µM; in the experiment with SK-MEL-2 melanoma, more than 100 µM. For the same compound, the GI50 with SK-OV-3 ovarian was more than 100 µM; in the experiment on SN12C renal it was more than 100000 nM; with SNB-19 CNS it was more than 100 µM; in the experiment with UO-31 renal, more than 100 µM. Moreover, the TGI in the experiment with A498 renal, with CCRF-CEM leukemia, in the experiment with HCT-15 colon, with MCF7 breast, in the experiment on RXF 393 renal and in the experiment with SK-MEL-2 melanoma was more than 100 µM each time. Moreover, the TGI with SK-OV-3 ovarian, in the experiment on SN12C renal, with SNB-19 CNS and in the experiment with UO-31 renal was more than 100 µM each time.
